Assay results published in PubChem BioAssay AID179 (DTP/NCI, 2004).
Active and inactive are the calls of the source.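 How the source made its calls: active means compounds giving half or more protection of infected cells from virus-caused growth loss, again on retest; inactive means the rest.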 Where a SMILES comes first, the peptide text is derived from it. The star is where a group is joined. Boc = CC(C)(C)OC(=O)*

Tested on: CEM cells HIV-1 protection, formazan growth assay
Experiment: NCI AIDS Antiviral Assay
Conditions: for IC50: measured here: growth of uninfected CEM cells
How it was run: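 Category rules: moderately active means at least 50% protection on retest, and confirmed active means 100% protection reproducibly. The underlying data came from a formazan growth assay in HIV-1-infected CEM cells.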

Row | SMILES | EC50 [µM] | IC50 [µM] | outcome
1 | O=c1ccc2ccccc2n1O | > 200 | > 200 | 
2 | O=C(C[P+](c1ccccc1)(c1ccccc1)c1ccccc1)c1ccc(Br)cc1 | > 200 | 14.8 | 
3 | COC1=C(C(=O)O)P(C)(=O)CC1 (stereo not drawn) | > 214 | > 214 | 
4 | Cc1cn(C2CC(O[Si](C)(C)C(C)(C)C)C(/C=[N+](/[O-])C(C)(C)C)O2)c(=O)[nH]c1=O (stereo not drawn) | > 120 | 33.9 | 
5 | CCN(CC)CCNC(=O)c1nn(C)c(=S)[nH]c1=S |  |  | inactive
6 | C1=C(c2ccccc2)C(OC2Oc3ccccc3C=C2c2ccccc2)Oc2ccccc21 (stereo not drawn) | > 31.6 | > 31.6 | 
7 | CCOC(=O)C1Cc2c(ccc(OC)c2OC)C(=O)C1N (stereo not drawn) |  |  | inactive
8 | CCOC(=O)c1cc(C2CCN(CC(C)CC)C2=S)c(-c2cc(C)no2)[nH]1 (stereo not drawn) | > 200 | > 200 | 
9 | COc1cc2c(cc1OC)C(N(C)C)C(c1ccccc1)=C2Cl (stereo not drawn) | > 55 | 33.1 | 
10 | O=C(CC(=O)N1N=C(N(c2ccccc2)c2ccccc2)CC1c1ccccc1)Nc1cccc(Cl)c1 (stereo not drawn) | 25.1 | > 200 | 
11 | O=S(=O)(c1ccc(Br)cc1)S(=O)(=O)c1ccc(Br)cc1 | > 11.7 | > 11.7 | 
12 | CC(=O)N(C)c1ccc2c(ccc[n+]2[O-])c1[N+](=O)[O-] | > 955 | > 955 | 
13 | O=C(O)c1cc(S(=O)(=O)Nc2cc(Cc3cc(NS(=O)(=O)c4ccc(O)c(C(=O)O)c4)c(O)c(C(=O)O)c3)cc(C(=O)O)c2O)ccc1O | > 100 | > 100 | 
14 | CCC(CCN)(CCN)[N+](=O)[O-] | > 200 | > 200 | 
15 | CC(O)CN1C(=O)C2C3C=CC(C3)C2C1=O (stereo not drawn) | > 200 | > 200 | 
16 | COc1nc2nccnc2c(=O)n1C | > 200 | > 200 | 
17 | CCOC(=O)c1c2c(n3ccccc13)C(=O)C(C)(C(=O)OCC)S2 (stereo not drawn) |  |  | active
18 | Cc1ccc(S(=O)(=O)N2CCN(CCN(C)CCN3CCN(S(=O)(=O)c4ccc(C)cc4)CC3)CC2)cc1 | > 100 | 46.8 | 
19 | OC(O)(C(F)(F)F)C(F)(F)F | > 200 | > 200 | 
20 | O=c1cc(Cl)c(Cl)nn1-c1ccccc1 | > 56.2 | 9.77 | 
21 | Cn1c2c(c3ccccc31)CCN1C(=O)CCC21 (stereo not drawn) | > 537 | 288 | 

Row | SMILES | EC50 [µM] | IC50 [µM] | outcome
22 | O=C(O)C1COCN1C(=O)c1cccnc1SSc1ncccc1C(=O)N1COCC1C(=O)O (stereo not drawn) | > 200 | > 200 | 
23 | CC(CO)(CO)N1C(=O)C2C3c4ccccc4C(c4ccccc43)C2C1=O (stereo not drawn) | > 200 | > 200 | 
24 | CCOc1cc2c(cc1O)/C(=N\N)C[C@@H]1[C@@H]2CC[C@]2(C)[C@@H](O)CC[C@@H]12 | > 2 | 0.209 | 
25 | COc1cc(C2C(Cl)C(=O)N2NC(=O)c2ccc(NC(C)=O)cc2)cc(Br)c1O (stereo not drawn) | > 200 | 162 | 
26 | O=C(O)CCC(NC(=O)c1ccc(Nc2nc3ccccc3nc2-c2cccs2)cc1)C(=O)O (stereo not drawn) | > 525 | 457 | 
27 | Cc1ccsc1C(=S)Nc1ccc(Cl)c(/C=N/OC(C)(C)C)c1 | 0.141 | 14.1 | 
28 | O=C([CH-]C(=O)c1ccccc1)c1ccccc1.[CH2-]C.[CH2-]C.[Tl+3] | > 53.7 | > 53.7 | 
29 | Oc1ccc(Cl)cc1-c1cc(-c2ccccc2)nc(=S)[nH]1 | > 200 | 170 | 
30 | O=C1c2ccccc2-c2nc3ncccc3cc21 | > 200 | 33.9 | 
31 | COC1(C2c3ccccc3CCN2C(=O)OC(C)(C)C)C(=O)C(c2ccccc2)=C1N(C)C (stereo not drawn) | > 200 | 36.3 | 
32 | C=CCc1cccc2cc(C(=O)Nc3nc(C45CC6CC(CC(C6)C4)C5)cs3)c(=O)oc12 | > 100 | > 100 | 
33 | Cc1ccc(S(=O)(=O)n2ccnc2)cc1 | > 200 | > 200 | 
34 | O=c1/c(=C/c2c(O)ccc3ccccc23)sc2nc3ccccc3n12 |  |  | inactive
35 | COC(=O)[C@@H]1C[C@@H]2c3ccccc3N(S(=O)(=O)c3ccccc3)[C@@H]2N1C(=O)OC | > 200 | > 200 | 
36 | Oc1c2cc(Cl)cc1COCc1cc(Cl)cc(c1O)COCc1cc(Cl)cc(c1O)COC2 | > 200 | 38.9 | 
37 | COc1ccc(CCN(C)C(=O)CC(C#N)(c2ccccc2)c2ccc(OC)c(OC)c2)cc1OC (stereo not drawn) | > 200 | 95.5 | 
38 | S=c1nn[nH]n1-c1ccccc1.[Zn+2] | > 2.57 | > 2.57 | 
39 | Cc1c(N=Nc2ccc(Br)cc2)c(=O)n(-c2ccccc2)c(=S)n1-c1nc2ccccc2s1 | > 83.2 | 19.5 | 
40 | O=C(Nc1cccc2ccccc12)Oc1ccccc1C1CCCCC1 |  |  | inactive
41 | Cc1cc(C#N)c[n+](C)c1 | > 200 | > 200 | 
42 | COC(=O)C1=C(C(=O)OC)N2c3ccccc3-n3c(-c4ccccc4)cc(OC)c3C2(C)C(C(=O)OC)=C1C(=O)OC (stereo not drawn) | > 53.7 | > 53.7 | 

Row | SMILES | EC50 [µM] | IC50 [µM] | outcome
43 | CCCC1C/C=C/C=C/C=C/C=C/C(OC2OC(C)C(O)C(N)C2O)CC(O)C(C(=O)O)C(O)CC(=O)CC(O)CCCC(=O)CC(O)C(CC)C(=O)O1 (stereo not drawn) |  |  | inactive
44 | Cc1nc2cc(N)c(F)cc2[nH]1 | > 537 | > 537 | 
45 | COc1ccccc1N1CCN(CCc2c[nH]c3cc4c(cc23)OCO4)CC1 | > 132 | 7.41 | 
46 | COc1ccccc1/C=C1/NC(=S)NC1=O | > 200 | > 200 | 
47 | O=C1CCC23CC(C=CC=C12)n1c(=O)n(-c2ccccc2)c(=O)n13 (stereo not drawn) | > 200 | 34.7 | 
48 | FC(F)C(F)(F)C(F)(F)C(F)(F)C(F)(F)C(F)(F)COC(OCC(F)(F)C(F)(F)C(F)(F)C(F)(F)C(F)(F)C(F)F)OCC(F)(F)C(F)(F)C(F)(F)C(F)(F)C(F)(F)C(F)F | > 200 | > 200 | 
49 | NC(=O)NNC(=O)CCn1[nH]c(=O)c(Cl)c(Cl)c1=O |  |  | inactive
50 | O=C(O)c1nn(-c2ccccc2-c2n[nH]c(=O)[nH]c2=O)c(=O)[nH]c1=O | > 200 | > 200 | 
51 | COc1c(I)c(OC)c2c(c1I)O[C@@H]1OCC[C@H]21 | > 501 | 240 | 
52 | O=C(NNC(=O)c1ccccc1O)c1ccc(O)cc1 | > 200 | 14.5 | 
53 | CC(=O)OCc1cc(=O)n2c([nH]c3ccccc32)c1C#N | > 20 | > 20 | 
54 | NCCCCC(=O)NC(CCCCNC(=O)OCc1ccccc1)C(=O)NCCCCC(=O)NC(CCCCNC(=O)OCc1ccccc1)C(=O)NCCCCC(=O)NC(CCCCNC(=O)OCc1ccccc1)C(=O)NCCCCC(=O)NC(CCCCNC(=O)OCc1ccccc1)C(=O)NCCCCC(=O)NC(CCCCNC(=O)OCc1ccccc1)C(=O)NCCCCC(=O)NC(CCCCNC(=O)OCc1ccccc1)C(=O)NCCCCC(=O)NC(CCCCNC(=O)OCc1ccccc1)C(=O)O (stereo not drawn) | > 7.08 | > 7.08 | 
55 | O=C(NCCNCCCNC(=O)c1cc(-c2ccccc2)nc2ccccc12)c1cccc(O)c1O | > 200 | 3.24 | 
56 | COc1ccc2cc(C(=O)NCCCNC(=O)c3ccc4cc(OC)ccc4c3)ccc2c1 |  |  | inactive
57 | CCOC(=O)CCCNC(=O)c1ccccc1SC(=O)CCCC[n+]1ccccc1 | > 2 | 0.912 | 
58 | CC(=O)/C(=C/c1cccc(Cl)c1)C(=O)c1ccccc1 | > 34.7 | 17 | 
59 | CC(C)c1ccc2c(c1)C=C1OC(=O)[C@]3(C)CCC[C@@]2(C)C13 (stereo partly drawn) | > 200 | 115 | 
60 | C=C(Br)CNC(=O)Nc1ccc(Cl)c(Cl)c1 | > 200 | 21.9 | 
61 | Cc1cc(O)c(C=NC(=S)c2ccccc2)c(=O)o1 | > 200 | > 200 | 
62 | CC1(C)OC2[C@@H](CO[C@@]3([C@@H](O)CCO)OC(C)(C)O[C@@H]23)O1 (stereo partly drawn) | > 200 | > 200 | 
63 | O=C1OCC(CN2CCC(n3c(=O)[nH]c4ccccc43)CC2)=C1c1ccccc1 | > 200 | 30.9 | 

Row | SMILES | EC50 [µM] | IC50 [µM] | outcome
64 | CC1(C)OC(=O)C(=Cc2ccccc2F)C(=O)O1 | > 380 | 70.8 | 
65 | COc1ccccc1C1CC(c2ccccc2)=Nc2ccccc2S1 (stereo not drawn) | > 42.7 | 8.13 | 
66 | O=C(Nc1ccc(C(=O)Nc2ccc(C3=NCCCN3)cc2)cc1)Nc1ccc(C2=NCCCN2)cc1 | > 200 | 17 | 
67 | COC(=O)Cc1c([C@@H]2Nc3ccccc3[C@H]2CC(=O)OC)[nH]c2ccccc12 | > 200 | 30.2 | 
68 | O=C1OC(N=P(c2ccccc2)(c2ccccc2)c2ccccc2)C(N=P(c2ccccc2)(c2ccccc2)c2ccccc2)=C1Cl (stereo not drawn) | > 20 | 18.2 | 
69 | CC1=Nn2c(nnc2-c2ccccc2Cl)NC(C)(C)C1 | > 447 | 282 | 
70 | Cn1cc2c(c1-c1ccccc1)[n+](=O)c1ccccc1n2[O-] | 5.13 | 32.4 | 
71 | COC(=O)C(Cc1c[nH]c2ccccc12)NC(=O)C(Cc1c[nH]c2ccccc12)NC(=O)C(Cc1c[nH]c2ccccc12)NC(=O)C(Cc1c[nH]c2ccccc12)NC(=O)OC(C)(C)C (stereo not drawn) (Boc-WWWW-OMe; configuration not given here) | > 100 | 13.8 | 
72 | O=S(O)CCCCCSSc1ccccc1 |  |  | inactive
73 | CNc1nc(SC)n(C)c(=O)c1N=O |  |  | inactive
74 | Cc1ccc(Nc2nc(=O)[nH]c(=O)[nH]2)cc1N | > 200 | > 200 | 
75 | CCOc1ncn(-c2ccc(NC(=S)Nc3cccc(O)c3)cc2)n1 | > 200 | > 200 | 
76 | CCOc1ncnc2ccc(Cl)c(I)c12 | > 77.6 | > 77.6 | 
77 | Oc1ccc([C@H]2c3c(O)cc(O)cc3C3c4c(cc(O)cc4[C@@H]2[C@H]2c4cc(O)cc5c4C(c4cc(O)cc(O)c4[C@@H]2c2ccc(O)cc2)[C@@H](c2ccc(O)cc2)O5)O[C@@H]3c2ccc(O)cc2)cc1 (stereo partly drawn) | > 100 | 13.8 | 
78 | CCCCCCCCCCCCCCCC[N+](C)(C)Cc1ccc(C[N+](C)(C)CCCCCCCCCCCCCCCC)cc1 |  |  | inactive
79 | Nc1nccc(CC(O)(c2ccccc2)c2ccccc2)n1 | > 64.6 | > 64.6 | 
80 | CC1=NNC(=O)C1C1CC(c2c[nH]c3ccccc23)=NNC1=S (stereo not drawn) | > 100 | > 100 | 
81 | COC(C/C(=C/CO[Si](C(C)C)(C(C)C)C(C)C)C(=O)N(COCC[Si](C)(C)C)c1ccccc1I)OC | > 200 | 32.4 | 
82 | Cc1noc(C)c1C1=CCCCc2ccccc21 | > 30.2 | > 30.2 | 
